Reference: ChEMBL document CHEMBL5096167, “Recent advances in development of hetero-bivalent kinase inhibitors” (Eur J Med Chem, 2021)
pIC50, pKd: −log10 of the molar value. Each block holds one compound with its values, some of them ahead of it. *1 amine or outer side, *2 acyl side, *3 side chain or, on linkers, in order; H or OH if unused. Where a SMILES comes first, the peptide text is derived from it. The star is where a group is joined. X1 = Brc1c(Br)c(Br)c2[nH]c(NCCCN*)nc2c1Br; Suc = O=C(CCC(=O)[*:2])[*:1]

Legend:
[1] = biological target: T1, Serine/threonine-protein kinase haspin (Homo sapiens, UniProt Q8TF76)
T1 sequence (Q8TF76 whole entry): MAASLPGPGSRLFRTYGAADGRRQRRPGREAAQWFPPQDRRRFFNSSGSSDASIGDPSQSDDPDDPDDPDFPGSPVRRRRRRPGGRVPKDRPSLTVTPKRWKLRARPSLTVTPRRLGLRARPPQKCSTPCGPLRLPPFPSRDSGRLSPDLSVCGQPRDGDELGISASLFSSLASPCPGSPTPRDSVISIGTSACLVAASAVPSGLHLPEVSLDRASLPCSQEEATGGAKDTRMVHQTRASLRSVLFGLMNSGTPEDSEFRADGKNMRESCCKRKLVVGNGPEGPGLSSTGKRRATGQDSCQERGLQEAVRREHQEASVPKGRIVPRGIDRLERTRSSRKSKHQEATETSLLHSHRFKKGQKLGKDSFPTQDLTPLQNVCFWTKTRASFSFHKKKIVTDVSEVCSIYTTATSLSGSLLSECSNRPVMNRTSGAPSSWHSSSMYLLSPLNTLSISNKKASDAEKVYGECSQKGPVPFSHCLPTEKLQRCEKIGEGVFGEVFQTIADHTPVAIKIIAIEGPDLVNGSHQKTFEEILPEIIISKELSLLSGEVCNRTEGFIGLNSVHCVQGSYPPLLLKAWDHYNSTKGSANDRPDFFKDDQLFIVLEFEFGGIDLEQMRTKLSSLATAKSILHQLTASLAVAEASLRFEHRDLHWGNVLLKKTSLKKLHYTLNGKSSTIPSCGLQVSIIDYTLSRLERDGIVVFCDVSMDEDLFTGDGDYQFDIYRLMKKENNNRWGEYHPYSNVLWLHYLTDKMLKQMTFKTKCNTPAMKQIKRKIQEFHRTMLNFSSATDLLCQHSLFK

[2] = Binding affinity to full length human recombinant PKAc assessed as dissociation constant
Homo sapiens [3] = species: Homo sapiens
[4] = Inhibition of CK2alpha2beta2 (unknown origin); parameters: species or system Homo sapiens
[5] = Binding affinity to human PKAc beta-S54L mutant assessed as dissociation constant
[6] = biological target: cAMP-dependent protein kinase catalytic subunit beta (Homo sapiens, UniProt P22694); experiment: Binding affinity to human wild-type PKAc beta assessed as dissociation constant
[7] = biological target: T1, Serine/threonine-protein kinase haspin; remark: listed apart in the source
[8] = biological target: T1, Serine/threonine-protein kinase haspin; remark: listed apart in the source
[9] = biological target: Proto-oncogene tyrosine-protein kinase Src (Homo sapiens, UniProt P12931); experiment: Inhibition of c-Src (unknown origin)
Casein kinase 2 = Casein kinase 2 (Homo sapiens, UniProt P67870+P68400+P19784+Q8NEV1); experiment: Inhibition of human CK2; format: protein assay
[10] = Binding affinity to PKAc (unknown origin) assessed as dissociation constant; parameters: species or system Homo sapiens
[11] = biological target: cAMP-dependent protein kinase (PKA) (Homo sapiens, UniProt P22694+P17612+P22612); experiment: Binding affinity to PKA (unknown origin) assessed as dissociation constant; format: protein assay
[12] = Inhibition of AKR3 (unknown origin) assessed as dissociation constant; parameters: species or system Homo sapiens
[13] = biological target: Rho-associated protein kinase 2 (Homo sapiens, UniProt O75116); experiment: Inhibition of ROCK2 (unknown origin) assessed as dissociation constant
Homo sapiens [14] = species: Homo sapiens; experiment: Selectivity ratio of Kd for inhibition of Untagged full length human PKAc alpha expressed in Escherichia coli BL21 DE3 cells assessed as dissociation constant to Kd for AKR3
Homo sapiens [15] = species: Homo sapiens; experiment: Selectivity ratio of Kd for inhibition of Untagged full length human PKAc alpha expressed in Escherichia coli BL21 DE3 cells assessed as dissociation constant to Kd for inhibition of ROCK2 (unknown origin)
[16] = biological target: cAMP-dependent protein kinase catalytic subunit alpha (Homo sapiens, UniProt P17612); experiment: Displacement of mAb(D38C6)-BTN from human recombinant PKAc alpha incubated for 15 mins by microplate reader assay
[17] = biological target: Mitogen-activated protein kinase 1 (Homo sapiens, UniProt P28482)
Sequence of Mitogen-activated protein kinase 1 (P28482 whole entry): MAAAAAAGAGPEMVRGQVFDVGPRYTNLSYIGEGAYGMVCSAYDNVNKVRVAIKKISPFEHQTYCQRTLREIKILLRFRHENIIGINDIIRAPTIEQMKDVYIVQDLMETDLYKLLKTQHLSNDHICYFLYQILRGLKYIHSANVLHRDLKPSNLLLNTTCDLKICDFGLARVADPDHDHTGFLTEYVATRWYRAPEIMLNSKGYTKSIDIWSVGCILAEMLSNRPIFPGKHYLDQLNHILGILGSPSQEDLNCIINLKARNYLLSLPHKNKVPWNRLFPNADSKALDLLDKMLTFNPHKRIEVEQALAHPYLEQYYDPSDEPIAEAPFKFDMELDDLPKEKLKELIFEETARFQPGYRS

Sequence of Proto-oncogene tyrosine-protein kinase Src (P12931 2-536 limits assumed): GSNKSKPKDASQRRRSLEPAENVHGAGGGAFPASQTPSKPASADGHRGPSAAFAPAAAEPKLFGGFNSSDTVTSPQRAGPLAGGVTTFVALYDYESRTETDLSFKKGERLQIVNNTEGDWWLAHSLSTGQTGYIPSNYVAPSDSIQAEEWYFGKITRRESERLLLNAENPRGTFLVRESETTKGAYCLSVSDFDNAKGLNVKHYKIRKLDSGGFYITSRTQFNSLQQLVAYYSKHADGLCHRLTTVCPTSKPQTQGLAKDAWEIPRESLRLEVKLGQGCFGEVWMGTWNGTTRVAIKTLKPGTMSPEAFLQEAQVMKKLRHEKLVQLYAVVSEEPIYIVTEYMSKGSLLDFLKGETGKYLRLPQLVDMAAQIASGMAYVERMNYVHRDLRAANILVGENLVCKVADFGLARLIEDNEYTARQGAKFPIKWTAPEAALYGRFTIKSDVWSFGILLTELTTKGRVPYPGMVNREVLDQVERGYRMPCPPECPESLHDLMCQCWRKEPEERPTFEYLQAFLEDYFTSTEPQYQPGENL
Sequence of Rho-associated protein kinase 2 (O75116 whole entry): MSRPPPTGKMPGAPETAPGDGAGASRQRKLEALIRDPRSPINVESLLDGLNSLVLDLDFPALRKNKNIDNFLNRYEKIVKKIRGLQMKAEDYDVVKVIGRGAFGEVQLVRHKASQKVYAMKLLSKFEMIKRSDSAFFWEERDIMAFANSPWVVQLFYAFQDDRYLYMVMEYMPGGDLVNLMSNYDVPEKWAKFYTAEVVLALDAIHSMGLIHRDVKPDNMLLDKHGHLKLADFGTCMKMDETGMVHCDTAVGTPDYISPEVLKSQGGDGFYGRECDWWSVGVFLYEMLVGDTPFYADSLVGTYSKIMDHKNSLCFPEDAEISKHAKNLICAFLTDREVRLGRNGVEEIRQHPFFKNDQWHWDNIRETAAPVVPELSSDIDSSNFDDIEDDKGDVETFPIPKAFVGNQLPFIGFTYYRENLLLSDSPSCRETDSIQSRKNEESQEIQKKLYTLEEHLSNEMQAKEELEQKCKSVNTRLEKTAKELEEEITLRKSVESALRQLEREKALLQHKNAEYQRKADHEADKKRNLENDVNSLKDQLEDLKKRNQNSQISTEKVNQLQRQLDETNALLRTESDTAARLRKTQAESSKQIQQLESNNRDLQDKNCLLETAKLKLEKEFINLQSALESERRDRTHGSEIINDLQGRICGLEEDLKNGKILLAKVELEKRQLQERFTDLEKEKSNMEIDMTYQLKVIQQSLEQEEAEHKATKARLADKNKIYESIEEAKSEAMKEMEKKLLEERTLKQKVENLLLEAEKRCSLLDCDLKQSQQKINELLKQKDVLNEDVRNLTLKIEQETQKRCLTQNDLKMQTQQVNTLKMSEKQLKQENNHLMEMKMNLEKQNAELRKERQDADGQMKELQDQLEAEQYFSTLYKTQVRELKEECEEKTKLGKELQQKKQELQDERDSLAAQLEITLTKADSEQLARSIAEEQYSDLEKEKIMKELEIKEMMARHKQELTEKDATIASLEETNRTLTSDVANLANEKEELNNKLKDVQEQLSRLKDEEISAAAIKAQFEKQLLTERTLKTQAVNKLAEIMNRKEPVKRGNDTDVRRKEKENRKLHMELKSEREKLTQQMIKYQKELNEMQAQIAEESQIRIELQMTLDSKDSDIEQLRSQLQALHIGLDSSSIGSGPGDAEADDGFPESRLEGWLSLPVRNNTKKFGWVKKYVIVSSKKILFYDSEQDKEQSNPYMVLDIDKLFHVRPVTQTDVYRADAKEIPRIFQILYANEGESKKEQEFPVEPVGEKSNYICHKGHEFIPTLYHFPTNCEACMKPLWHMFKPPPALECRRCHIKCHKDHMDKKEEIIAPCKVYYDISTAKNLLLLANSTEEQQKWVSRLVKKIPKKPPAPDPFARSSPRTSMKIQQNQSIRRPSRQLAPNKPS

SMILES: NCCCNc1nc2c(Br)c(Br)c(Br)c(Br)c2[nH]1
- pIC50 [4]: 6.89

SMILES: C[C@H](N)C(=O)N[C@@H](CCCNC(=N)N)C(=O)N[C@@H](CCCCNC(=O)C[C@@H](NC(=O)CCCCCNC(=O)[C@H]1O[C@@H](n2cc(I)c3c(N)ncnc32)[C@H](O)[C@@H]1O)C(=O)O)C(=O)N[C@@H](CCCNC(=N)N)C(=O)N[C@@H](CCC(=O)O)C(=O)N[C@H](C(=O)N[C@@H](C)C(=O)N[C@H](CCCCN)C(N)=O)[C@H](C)O
- pKd [2]: 7.03
- Selectivity Index (Homo sapiens [3]): 4900
- pKd [7]: 10.72
- pKd [8]: 10.72

SMILES: C#CCCC(=O)N1CCN(c2cc(Nc3cc(C4CC4)[nH]n3)nc(C)n2)CC1
- pIC50 [9]: 5.54

SMILES: O=C(O)Cc1c(Br)c(Br)c(Br)c2[nH]nnc12
- IC50 (Casein kinase 2): 8000 nM

SMILES: C#CCCCCNC(=O)CCCCCn1nc(N)c2cc(-c3c(-c4ccccc4)nn4ccccc34)nnc21
- pIC50 [17]: 5.92

The next lines start with results.

- pKd [1]: 9.38
- pKd [2]: 7.42
- Selectivity Index (Homo sapiens [3]): 90
SMILES: C[C@H](N)C(=O)N[C@@H](CCCNC(=N)N)C(=O)N[C@@H](CCCCNC(=O)C[C@@H](NC(=O)CCCCCNC(=O)[C@H]1O[C@@H](n2cnc3c(N)ncnc32)[C@H](O)[C@@H]1O)C(N)=O)C(=O)N[C@@H](CCCCN)C(=O)N[C@@H](CCC(N)=O)C(=O)N[C@H](C(=O)N[C@@H](C)C(=O)N[C@@H](CCCNC(=N)N)C(=O)N[C@@H](CCCNC(=N)N)C(=O)N[C@@H](CCCNC(=N)N)C(=O)N[C@@H](CCCNC(=N)N)C(=O)N[C@@H](CCCNC(=N)N)C(=O)N[C@@H](CCCNC(=N)N)C(N)=O)[C@H](C)O

- pKd [1]: 6.82
- pKd [2]: 5.11
- Selectivity Index (Homo sapiens [3]): 50
SMILES: C[C@H](N)C(=O)N[C@@H](CCCNC(=N)N)C(=O)N[C@@H](CCCCNC(=O)C[C@@H](NC(=O)CCCCCNC(=O)[C@H]1O[C@@H](n2cnc3c(N)ncnc32)[C@H](O)[C@@H]1O)C(=O)O)C(=O)N[C@@H](CCCCN)C(=O)N[C@@H](CCC(N)=O)C(=O)N[C@H](C(=O)N[C@@H](C)C(N)=O)[C@@H](C)O

- pKd [5]: 10.72
- pKd [6]: 10.89
SMILES: N=C(N)NCCCC(NC(=O)CCCCCNC(=O)C(Cc1c[nH]c2ccccc12)NC(=O)CCCCCNC(=O)c1ccc(-c2ccnc(N)n2)[se]1)C(=O)NC(CCCNC(=N)N)C(=O)NC(CCCNC(=N)N)C(=O)NC(CCCNC(=N)N)C(=O)NC(CCCNC(=N)N)C(=O)NC(CCCNC(=N)N)C(=O)NC(CCCCN)C(N)=O (centres undefined)

- pKd [10]: 11.52
- Kd [11]: 0.1 nM
- pKd [12]: 6.51
- pKd [13]: 7.52
SMILES: N=C(N)NCCC[C@@H](NC(=O)CCCCCCCC(=O)N1CCN(C2N=CN=C3NC=CC32)CC1)C(=O)N[C@H](CCCNC(=N)N)C(=O)N[C@H](CCCNC(=N)N)C(=O)N[C@H](CCCNC(=N)N)C(=O)N[C@H](CCCNC(=N)N)C(=O)N[C@H](CCCNC(=N)N)C(=O)N[C@H](CCCCN)C(N)=O (some centres undefined)
- Selectivity ratio (Homo sapiens [14]): 10
- Ratio (Homo sapiens [15]): 10

- pIC50 [4]: 7.60
SMILES: O=C(O)CC[C@H](NC(=O)[C@H](CCC(=O)O)NC(=O)[C@H](CCC(=O)O)NC(=O)[C@H](CCC(=O)O)NC(=O)CCC(=O)NCCCNc1nc2c(Br)c(Br)c(Br)c(Br)c2[nH]1)C(=O)O ({X1-Suc}-EEEE-OH)

- pKd [16]: 10.38
SMILES: C[C@@H](NC(=O)CCCCCNC(=O)c1ccc(-c2ccnc(N)n2)[se]1)C(=O)N[C@H](CCCNC(=N)N)C(=O)N[C@H](CCCNC(=N)N)C(=O)N[C@H](CCCNC(=N)N)C(=O)N[C@H](CCCNC(=N)N)C(=O)N[C@H](CCCNC(=N)N)C(=O)N[C@H](CCCNC(=N)N)C(=O)N[C@H](CCCCN(C)c1ccc2c(-c3ccc(C(=O)[O-])cc3C(=O)O)c3ccc(=[N+](C)C)cc-3oc2c1)C(N)=O
